Reference: ChEMBL document CHEMBL1909294, “Translating clinical findings into knowledge in drug safety evaluation--drug induced liver injury prediction system (DILIps)” (PLoS Comput Biol, 2011)

Key:
Hepatotoxicity [1] = tested on: Hepatotoxicity;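 as to HepSE Combined Scores: combined hepatic side effect score as listed in the training data of the Drug Induced Liver Injury Prediction System (DILIps)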;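 as to HepSE cholelithiasis: hepatic side effect score for cholelithiasis, drawn from the DILIps training data for predicting drug-induced liver injury; call rule not given here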;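 as to HepSE elevated liver function tests: hepatic side effect score for raised liver function tests, as recorded in the DILIps training set used for predicting drug-induced liver injury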;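 as to HepSE hepatic necrosis: score of hepatic side effects for hepatic necrosis, drawn from the training data of DILIps, a prediction system for drug-induced liver injury; call rule not given here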;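 as to HepSE hepatomegaly: hepatic side effect score for hepatomegaly, taken from the training set of the DILIps drug-induced liver injury prediction system; call rule not given here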;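 as to HepSE liver function tests abnormal: hepatic side effect score taken from the DILIps (drug-induced liver injury prediction system) training data, here covering abnormal liver function test findings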
Hepatotoxicity [2] = tested on: Hepatotoxicity; remark: listed apart in the source;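 as to HepSE Combined Scores: combined hepatic side effect score as listed in the training data of the Drug Induced Liver Injury Prediction System (DILIps)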;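 as to HepSE cholelithiasis: hepatic side effect score for cholelithiasis, drawn from the DILIps training data for predicting drug-induced liver injury; call rule not given here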;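 as to HepSE elevated liver function tests: hepatic side effect score for raised liver function tests, as recorded in the DILIps training set used for predicting drug-induced liver injury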;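 as to HepSE hepatic necrosis: score of hepatic side effects for hepatic necrosis, drawn from the training data of DILIps, a prediction system for drug-induced liver injury; call rule not given here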;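 as to HepSE hepatomegaly: hepatic side effect score for hepatomegaly, taken from the training set of the DILIps drug-induced liver injury prediction system; call rule not given here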;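 as to HepSE liver function tests abnormal: hepatic side effect score taken from the DILIps (drug-induced liver injury prediction system) training data, here covering abnormal liver function test findings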
Hepatotoxicity [3] = tested on: Hepatotoxicity; remark: listed apart in the source;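 as to HepSE cholelithiasis: hepatic side effect score for cholelithiasis, drawn from the DILIps training data for predicting drug-induced liver injury; call rule not given here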;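 as to HepSE elevated liver function tests: hepatic side effect score for raised liver function tests, as recorded in the DILIps training set used for predicting drug-induced liver injury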;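 as to HepSE hepatic necrosis: score of hepatic side effects for hepatic necrosis, drawn from the training data of DILIps, a prediction system for drug-induced liver injury; call rule not given here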;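 as to HepSE hepatomegaly: hepatic side effect score for hepatomegaly, taken from the training set of the DILIps drug-induced liver injury prediction system; call rule not given here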;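 as to HepSE liver function tests abnormal: hepatic side effect score taken from the DILIps (drug-induced liver injury prediction system) training data, here covering abnormal liver function test findings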
Hepatotoxicity [4] = tested on: Hepatotoxicity; remark: listed apart in the source;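 as to HepSE cholelithiasis: hepatic side effect score for cholelithiasis, drawn from the DILIps training data for predicting drug-induced liver injury; call rule not given here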;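 as to HepSE elevated liver function tests: hepatic side effect score for raised liver function tests, as recorded in the DILIps training set used for predicting drug-induced liver injury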;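 as to HepSE hepatic necrosis: score of hepatic side effects for hepatic necrosis, drawn from the training data of DILIps, a prediction system for drug-induced liver injury; call rule not given here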;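 as to HepSE hepatomegaly: hepatic side effect score for hepatomegaly, taken from the training set of the DILIps drug-induced liver injury prediction system; call rule not given here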;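 as to HepSE liver function tests abnormal: hepatic side effect score taken from the DILIps (drug-induced liver injury prediction system) training data, here covering abnormal liver function test findings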
Hepatotoxicity [5] = tested on: Hepatotoxicity; remark: listed apart in the source
Hepatotoxicity [6] = tested on: Hepatotoxicity; remark: listed apart in the source
Hepatotoxicity [7] = tested on: Hepatotoxicity; remark: listed apart in the source
Hepatotoxicity [8] = tested on: Hepatotoxicity; remark: listed apart in the source
Hepatotoxicity [9] = tested on: Hepatotoxicity; remark: listed apart in the source
Hepatotoxicity [10] = tested on: Hepatotoxicity; remark: listed apart in the source
Hepatotoxicity [11] = tested on: Hepatotoxicity; remark: listed apart in the source
Hepatotoxicity [12] = tested on: Hepatotoxicity; remark: listed apart in the source
Hepatotoxicity [13] = tested on: Hepatotoxicity; remark: listed apart in the source
Hepatotoxicity [14] = tested on: Hepatotoxicity; remark: listed apart in the source

Row | Molecule | HepSE_hepatomegaly (Hepatotoxicity [1]) | HepSE_cholelithiasis (Hepatotoxicity [2]) | HepSE_hepatic necrosis (Hepatotoxicity [3]) | HepSE_hepatitis (Hepatotoxicity [4]) | HepSE_liver function tests abnormal (Hepatotoxicity [5]) | HepSE_elevated liver function tests (Hepatotoxicity [6]) | HepSE_Combined Scores (Hepatotoxicity [7]) | HepSE_hepatic failure (Hepatotoxicity [8]) | HepSE_cirrhosis (Hepatotoxicity [9]) | HepSE_cholecystitis (Hepatotoxicity [10]) | HepSE_bilirubinemia (Hepatotoxicity [11]) | HepSE_liver fatty (Hepatotoxicity [12]) | HepSE_jaundice (Hepatotoxicity [13]) | HepSE_liver disease (Hepatotoxicity [14])
1 | CCC1=C(C)CN(C(=O)NCCc2ccc(S(=O)(=O)NC(=O)N[C@H]3CC[C@H](C)CC3)cc2)C1=O [GLIMEPIRIDE] | 0 | 0 | 0 | 1 | 0 | 0 | 3 | 1 | 0 | 0 | 0 | 0 | 1 | 0
2 | CN[C@@H]1CCc2[nH]c3ccc(C(N)=O)cc3c2C1 [FROVATRIPTAN] | 0 | 0 | 0 | 0 | 0 | 0 | 0 | 0 | 0 | 0 | 0 | 0 | 0 | 0
3 | COc1c2occc2cc2ccc(=O)oc12 [METHOXSALEN] | 0 | 0 | 0 | 0 | 0 | 0 | 0 | 0 | 0 | 0 | 0 | 0 | 0 | 0
4 | NYSTATIN | 0 | 0 | 0 | 0 | 0 | 0 | 0 | 0 | 0 | 0 | 0 | 0 | 0 | 0
5 | Oc1ccc(C2CNCCc3c2cc(O)c(O)c3Cl)cc1 (configuration not stated) [FENOLDOPAM] | 0 | 0 | 0 | 0 | 0 | 0 | 0 | 0 | 0 | 0 | 0 | 0 | 0 | 0
6 | [Cl-].[K+] [POTASSIUM CHLORIDE] | 0 | 0 | 0 | 0 | 0 | 0 | 0 | 0 | 0 | 0 | 0 | 0 | 0 | 0
7 | CO[C@@]1(NC(=O)C2SC(=C(C(N)=O)C(=O)O)S2)C(=O)N2C(C(=O)O)=C(CSc3nnnn3C)CS[C@@H]21 (some centres not stated) [CEFOTETAN] | 0 | 0 | 0 | 0 | 0 | 0 | 0 | 0 | 0 | 0 | 0 | 0 | 0 | 0
8 | C/C(=C\C(=O)OCCCCCCCCC(=O)O)C[C@@H]1OC[C@H](C[C@@H]2O[C@H]2[C@@H](C)[C@H](C)O)[C@@H](O)[C@H]1O [MUPIROCIN] | 0 | 0 | 0 | 0 | 0 | 0 | 0 | 0 | 0 | 0 | 0 | 0 | 0 | 0
9 | O=C(O[C@@H]1C[C@@H]2C[C@H]3C[C@H](C1)N2CC3=O)c1c[nH]c2ccccc12 [DOLASETRON] | 0 | 0 | 0 | 0 | 0 | 0 | 2 | 0 | 0 | 0 | 1 | 0 | 0 | 1
10 | C[C@@H](O)[C@H]1C(=O)N2C(C(=O)O)=C(S[C@@H]3CN[C@H](C(=O)Nc4cccc(C(=O)O)c4)C3)[C@H](C)[C@H]12 | 0 | 1 | 0 | 0 | 0 | 0 | 4 | 0 | 0 | 1 | 0 | 0 | 1 | 1
11 | NCC(=O)CCC(=O)O [AMINOLEVULINIC ACID] | 0 | 0 | 0 | 0 | 0 | 0 | 0 | 0 | 0 | 0 | 0 | 0 | 0 | 0
12 | OC(CCN1CCCCC1)(c1ccccc1)C1CC2C=CC1C2 (configuration not stated) [BIPERIDEN] | 0 | 0 | 0 | 0 | 0 | 0 | 0 | 0 | 0 | 0 | 0 | 0 | 0 | 0
13 | NC(=O)N1c2ccccc2C=Cc2ccccc21 [CARBAMAZEPINE] | 0 | 0 | 0 | 1 | 1 | 0 | 4 | 1 | 0 | 0 | 0 | 0 | 1 | 0
